The values that follow come from patent publication US8853193B2, “Thienopyrimidines containing a substituted alkyl group for pharmaceutical compositions” (Boehringer Ingelheim International GmbH, priority 2010, dated 2014).

Where a name gives a salt, the structure may show the parent alone.

Sequence of human Mnk2a (Q9HBH9 whole entry): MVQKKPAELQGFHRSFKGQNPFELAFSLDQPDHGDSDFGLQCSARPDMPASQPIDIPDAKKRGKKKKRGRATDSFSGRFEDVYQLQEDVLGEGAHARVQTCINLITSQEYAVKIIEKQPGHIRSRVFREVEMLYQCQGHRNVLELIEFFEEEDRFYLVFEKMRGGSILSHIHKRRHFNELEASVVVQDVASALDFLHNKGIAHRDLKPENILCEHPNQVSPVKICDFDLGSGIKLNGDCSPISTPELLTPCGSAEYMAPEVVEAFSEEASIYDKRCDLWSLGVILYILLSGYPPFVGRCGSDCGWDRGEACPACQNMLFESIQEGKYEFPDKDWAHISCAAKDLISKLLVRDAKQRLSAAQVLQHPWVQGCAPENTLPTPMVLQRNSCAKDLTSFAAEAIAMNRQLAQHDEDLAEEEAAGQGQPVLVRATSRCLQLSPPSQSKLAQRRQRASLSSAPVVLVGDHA

The experiment addresses human Mnk2a (Homo sapiens (Human), UniProt Q9HBH9). Briefly: Mnk2a in vitro kinase assay (indirect competitive fluorescence polarization). The class given is biochemical. Conditions: pre-activated GST-Mnk2a 2.5 nM, 20 μM ATP, 30 μM substrate peptide; read-out: MNK2 IC50. How it is done: Inhibitory potency of compounds against Mnk1, Mnk2a and other kinases was assessed with assays based on a format known to those skilled in the art as the indirect (competitive) fluorescence polarization. The assay detection system comprises a small fluorophore-labeled phospho-peptide (termed ligand) bound to a phospho-specific antibody. The product generated by the kinase reaction competes with the ligand for antibody binding. Based on the larger molecular volume of the bound ligand, which results in a lower rotation rate in solution, its emitted light has a higher degree of polarization than the one from the free ligand.
In brief, the open reading frames of human Mnk1 and Mnk2a were amplified from cDNA using the forward/reverse primer pairs
(utilized restriction sites underlined), respectively, and cloned into the BamHI and SalI sites of the vector pGEX-4T1 (Amersham, Sweden, cat. no. 27-4580-01). These constructs allow prokaryotic expression of Mnk1 or Mnk2a as fusion protein with a N-terminal glutathione S-transferase (GST) tag, referred to as GST-Mnk1 or GST-Mnk2a. The following expression and purification procedure was identical for GST-Mnk1 and GST-Mnk2a, referring in general to GST-Mnk, when not distinguishing between the two isoforms. Expression of GST-Mnk was in E. coli BL21 (Merck Biosciences, Germany, cat. no. 69449). Cells were grown in LB-Bouillon (Merck, Germany, cat. no. 1.10285) supplemented with 100 μg/ml ampicillin (Sigma, Germany, cat. no. A9518) at 37° C. […] Cells harvested by centrifugation were resuspended in 10 ml lysis buffer (50 mM tris(hydroxymethyl)aminomethane hydrochloride (Tris/HCl, Sigma, Germany, cat. no. T5941) pH 7.5, 300 mM sodium chloride (NaCl, Sigma, Germany, cat. no. S7653), 5% (w/v) glycerol (Sigma, Germany, cat. no. G5516), 3 mM DTT dithiotreitol (DTT, Sigma, Germany, cat. no. D9779)) per gram wet weight cell pellet. Lysates were prepared by disruption of cells with a sonifier and subsequent clearing by centrifugation at 38000 g for 45 min at 4° C.
The lysate was applied to a GSTPrep FF 16/10 column (Amersham, Sweden, cat. no. 17-5234-01) equilibrated with lysis buffer. Removal of unbound material was with 3 column volumes (CV) lysis buffer. Elution was with 2 CV of elution buffer (50 mM Tris/HCl pH 7.5, 300 mM NaCl, 5% (w/v) glycerol, 20 mM glutathione (Sigma, Germany, cat. no. G4251)). Peak fractions were pooled and the protein transferred into storage buffer (50 mM Tris/HCl pH 7.5, 200 mM NaCl, 0.1 mM ethylene glycol[…] bis(2-aminoethylether)-N,N,N′,N′-tetraacetic acid (EGTA, Aldrich, Germany, cat. no. 23, 453-2), 1 mM DTT, 10% (w/v) glycerol, 0.5 M sucrose (Sigma, Germany, cat. no. S0389) by gel filtration on a PD10 desalting column (Amersham, Sweden, cat. no. 17-0851-01). Aliquots were shock frozen in liquid nitrogen and stored at −80° C.
Activation of Mnk1 and Mnk2a was at a concentration of 2.5 μM of either purified GST-Mnk1 or GST-Mnk2a by incubation with 150 nM pre-activated NHis-ERK2 (see ERK2 assay for preparation) and 50 μM adenosine triphosphate (ATP, Sigma, cat. no. A2699) in a buffer comprising 20 mM N-(2-hydroxyethyl)piperazine-N′-(2-ethanesulfonic acid) (HEPES, Fluka, Germany, cat. no 54459)/potassium hydroxide (KOH, Roth, Germany, cat. no 6751.1) pH 7.4, 10 mM magnesium chloride (MgCl2, Sigma, Germany, cat. no. M2670), 0.25 mM DTT, 0.05% (w/v) polyoxyethylene 20 stearylether (Brij 78, Sigma, Germany, cat. no. P4019) (HMDB buffer) for 45 min at 30° C. After the incubation, the preparation was aliquoted into single-use samples, shock frozen in liquid nitrogen, stored at −80° C. and utilized for Mnk1 or Mnk2a kinase assays as detailed below.
The serine residue phosphorylated by Mnk kinases is underlined.
In the case of `COC(=O)c1sc2ncnc(Nc3cccnc3OC(C)CN)c2c1C` (stereo not drawn) [Compound 11-2, Methyl 4-(2-(1-aminopropan-2yloxy)-pyridin-3-ylamino)-5-methyl-thieno[2,3-d]pyrimidine-6-carboxylate hydrochloride], the IC50 (in general, the concentration that gives 50% inhibition) was found to be 418 nM.

Consider `COCC(C)Oc1cc(F)ccc1Nc1ncnc2sc(C(=O)O)c(C)c12` (stereo not drawn) [Compound 32-10], for which the IC50 is 18 nM.

With `Cc1c(C(N)=O)sc2ncnc(Nc3cccnc3OCC(F)F)c12` [Compound 30-3, 4-(2-(2,2-Difluoroethoxy)pyridin-3-ylamino)-5-methyl-thieno[2,3-d]pyrimidine-6-carboxamide], the IC50 came out at 18 nM.

Turning to `Cc1c(C(=O)NC2CCN(C)CC2)sc2ncnc(Nc3ccc(F)cc3OC(C)CF)c12` (stereo not drawn) [Compound 32-45], the IC50 came to 11 nM.

Turning to `CCC(CN)Oc1cc(F)ccc1Nc1ncnc2sc(C(=O)OC)c(C)c12` (stereo not drawn) [Compound 10-2, Methyl 4-(2-(1-aminobutan-2yloxy)-4-fluorophenylamino)-5-methyl-thieno[2,3-d]pyrimidine-6-carboxylate hydrochloride], the IC50 turned out to be 229 nM.

On to `Cc1c(C(=O)NCCO)sc2ncnc(Nc3ccc(F)cc3OC(C)C(=O)NCCCN)c12` (stereo not drawn) [Compound 57, 4-{2-[1-(3-Amino-propylcarbamoyl)-ethoxy]-4-fluoro-phenylamino}-5-methyl-thieno[2,3-d]pyrimidine-6-carboxylic acid (2-hydroxy-ethyl)-amide], for which the IC50 was found to be 110 nM.

As to `Cc1c(C(=O)NCCO)sc2ncnc(Nc3cccnc3OCC(F)F)c12` [Compound 30-4, 4-(2-(2,2-difluoroethoxy)-pyridin-3-ylamino)-N-(2-hydroxy-ethyl)-5-methylthieno [2,3-d]pyrimi-dine-6-carboxamide], the IC50 is 48 nM.

Turning to `Cc1c(C(=O)NCCCN(C)C)sc2ncnc(Nc3cccnc3OCC(C)F)c12` (stereo not drawn) [Compound 27-4, N-(3-(dimethylamino)-propyl)-4-(2-(2-fluoro-propoxy)pyridin-3-ylamino)-5-methyl-thieno[2,3-d]pyrimidine-6-carboxamide hydrochloride], the IC50 is 73 nM.

On to `Cc1c(C(=O)NCCCN(C)C)sc2ncnc(Nc3ccc(F)cc3OC(CO)CO)c12` [Compound 32-31], for which the IC50 stood at 146 nM.

As for `Cc1c(C(=O)NCCCN(C)C)sc2ncnc(Nc3ccc(F)cc3OCC(F)(F)F)c12` [Compound 32-16], the IC50 turned out to be 66 nM.

Take `Cc1c(C(=O)NCC2CNCCO2)sc2ncnc(Nc3cccnc3OC(C)C)c12` (stereo not drawn) [Compound 36-5, 4-(2-Isopropoxypyridin-3-ylamino)-5-methyl-N-(morpholin-2ylmethyl) thieno[2,3-d]pyrimidine-6-carboxamide]: the IC50 worked out at 25 nM.

With `Cc1c(C(=O)NCCCN(C)C)sc2ncnc(Nc3ccc(F)cc3OCCO)c12` [Compound 32-34], the IC50 was determined as 69 nM.

As for `COCC(CF)Oc1cc(F)ccc1Nc1ncnc2sc(C(=O)NCCO)c(C)c12` (stereo not drawn) [Compound 32-25], the IC50 came to 13 nM.

With `Cc1c(C(=O)N[C@@H]2C[C@H]2NC(=O)OC(C)(C)C)sc2ncnc(Nc3ccc(F)cc3OC(CF)CF)c12` [Compound 23-5, Tert-butyl (1R,2R)-2-(4-2(1,3-difluoro-propan-[2,3-d]pyrimidine-6-carboxamido)cyclopropyl carbamate], the IC50 was 13 nM.

As to `Cc1c(C(=O)NCCO)sc2ncnc(Nc3cccnc3OCC(C)F)c12` (stereo not drawn) [Compound 27-3, 4-(2-(2-Fluoropropoxy)pyridin-3-ylamino)-N-(2-hydroxyethyl)-5-methyl-thieno[2,3-d]pyrimidine-6-carboxamide], the IC50 amounted to 58 nM.

Turning to `Cc1c(C(=O)O)sc2ncnc(Nc3ccc(F)cc3OCC(C)F)c12` (stereo not drawn) [Compound 32-12], the IC50 turned out to be 12 nM.

For the molecule `Cc1c(C(=O)NCCCN(C)C)sc2ncnc(Nc3ccc(F)cc3OC(C)CC(C)(C)O)c12` (stereo not drawn) [Compound 20-3, N-(3-(Dimethylamino)propyl)-4-(4-fluoro-2-(4-hydroxy-4-methylpentan-2-yloxy)phenylamino)-5-methyl-thieno[2,3-d]pyrimidine-6-carboxamide trifluoroacetate], the IC50 came to 59 nM.

As for `Cc1c(C(N)=O)sc2ncnc(Nc3ccc(F)cc3OC(C)C(C)(C)O)c12` (stereo not drawn) [Compound 60, 4-[4-Fluoro-2-(2-hydroxy-1,2-dimethyl-propoxy)-phenylamino]-5-methyl-thieno[2,3-d]pyrimidine-6-carboxylic acid amide], the IC50 was 37 nM.

With `Cc1c(C(N)=O)sc2ncnc(Nc3cccnc3OCC3CC3(F)F)c12` (stereo not drawn) [Compound 34-4], the IC50 came to 15 nM.

Take `Cc1c(C(N)=O)sc2ncnc(Nc3cccnc3OCCO)c12` [Compound 29-3, 4-(2-(2-Hydroxyethoxy)pyridin-3-ylamino)-5-methylthieno[2,3-d]pyrimidine-6-carboxamide]: the IC50 turned out to be 86 nM.

As to `Cc1c(C(N)=O)sc2ncnc(Nc3ccc(F)cc3OC(CF)CF)c12` [Compound 23-3, 4-(2-(1,3-Difluoropropan-2-yloxy)-4-fluorophenylamino)-5-methyl-thieno[2,3-d]pyrimidine-6-carboxamide], the IC50 came out at 4 nM.

Consider `COC(=O)c1sc2ncnc(Nc3cccnc3OC(C)CCN)c2c1C` (stereo not drawn) [Compound 15-2, Methyl 4-(2-((4-aminobutan-2yloxy)pyridin-3ylamino)-5-methyl-thieno[2,3-d]pyrimidine-6-carboxylate trifluoroacetate], for which the IC50 came out at 174 nM.

Regarding `Cc1c(C(N)=O)sc2ncnc(Nc3ccc(F)cc3OC(CO)CO)c12` [Compound 32-30], the IC50 is 56 nM.

In the case of `COC(=O)c1sc2ncnc(Nc3ccc(F)cc3OC(C)CNC(=O)C(C)C)c2c1C` (stereo not drawn) [Compound 3-5, Methyl 4-(4-fluoro2-(1-isobutyramidopropan-2-yloxy)phenylamino)-5-methylthieno[2,3-d]-pyrimidine-6-carboxylate], the IC50 was 443 nM.

Turning to `Cc1c(C(N)=O)sc2ncnc(Nc3ccc(F)cc3OCC3CC3(F)F)c12` (stereo not drawn) [Compound 32-21], the IC50 was 8 nM.

Turning to `Cc1c(C(=O)NCCCCO)sc2ncnc(Nc3cccnc3OC(C)C)c12` [Compound 36-2, N-(4-Hydroxybutyl)-4-(2-isopropoxypyridin-3-ylamino)-5-methylthieno[2,3-d]pyrimidine-6-carboxamide], the IC50 is 42 nM.

As for `Cc1c(C(=O)NCCCN(C)C)sc2ncnc(Nc3cccnc3OCC(F)F)c12` [Compound 30-5, 4-(2-(2,2-difluoroethoxy)-pyridin-3-ylamino)-N-(3-(dimethyl-amino)propyl)-5-methyl-thieno[2,3-d]pyrimidine-6-carbox-amide hydro-chloride], the IC50 is 57 nM.

For `Cc1c(C(=O)NCCCN(C)C)sc2ncnc(Nc3ccc(F)cc3OC(C)C#N)c12` (stereo not drawn) [Compound 63], the IC50 is 17 nM.

Consider `COCC(C)Oc1ncccc1Nc1ncnc2sc(C(=O)NCCCN(C)C)c(C)c12` (stereo not drawn) [Compound 28-5, N-(3-(di-methylamino)propyl)-4-(2-(1-methoxy-propan-2-yloxy)pyridin-3-ylamino)-5-methlthieno-[2,3-d]pyrimi-dine-6-carboxamide hydrochloride], for which the IC50 worked out at 93 nM.

With `Cc1c(C(=O)NCCO)sc2ncnc(Nc3ccc(F)cc3OC(C)CN)c12` (stereo not drawn) [Compound 2-3, 4-(2-(1-Amino-propan-2-yloxy)-4-fluorophenylamino)-N-(2-hydroxy-ethyl)-5-methyl-thieno[2,3-d]-pyrimidine-6-carboxamide], the IC50 turned out to be 50 nM.
